Data published in patent US20250381165A1, “Method of Use for Benzofuran Compounds” (Tampa Bay Research Institute, Inc., priority 2024, published 2025).

How the values were obtained:
[1] = target: T1, H-2Kb/SIINFEKL complex on DC2.4 (Mus musculus, UniProt P01901); assay: BFA decay experiment (SIINFEKL off-rate) on DC2.4; format: cell-based, murine; details: 24 h pre-treatment, 1 h 30 nM SIINFEKL
T1 construct: DC2.4 are a C57Bl/6 lineage murine cell line and as such they express MHC class I H-2Kb and H-2Db; endogenous in cells; host or cells: DC2.4 (murine dendritic cell line, from Dr. Kenneth Rock)

[2] = tested on: MHC class I H-2Kb on DC2.4; assay: MHC class I recovery after acid stripping of DC2.4; format: cell-based, murine
Procedure: To determine if BzFβ affects synthesis or cycling of the MHC class I molecules, the class I molecule/peptide complexes were stripped from the surface of DC2.4 cells using a citric acid buffer, then treated with 25 μg/mL BzFβ, 5 mM of the dipeptide GL, or 3 μg/mL BFA (see Example 4) as a negative control.
An acid wash to strip the cell surface of MHC class I was performed as described with modifications. (Montealegre, et al., Dissociation of β2-microglobulin determines the surface quality control of major histocompatibility complex class I molecules. FASEB. 2015 July; 29(7):2780-8). DC2.4 were incubated overnight at 37° C. at 1×10^5. Cells were washed for 2 min in acidic buffer [(pH 2.5) 465 mM Citric acid, 35 mM sodium citrate, in PBS with 1% v/v FBS] or neutral buffer [(pH 7.4) PBS with 1% v/v FBS]. Afterwards the pH was neutralized by the addition of cDMEM. The cells were washed with PBS and treated with BzFβ or GL in cDMEM for various times to allow for MHC class I recovery at 37° C. Cells were washed and stained with an H-2Kb-specific antibody (Invitrogen, cat. no. 12-5958-82) and analyzed by flow cytometry as described previously
MHC I recovery on the cell surface at various time points was detected by flow cytometry using the PE-labeled MHC class I H-2Kb specific antibody (AF6-88.5.5.3). […] At 6 hours >60% of the MHC class I molecules recovered, seen in FIG. 14.

[3] = tested on: SIINFEKL specific CD8+ T cells; assay: Immunization with BzFβ/SIINFEKL treated DC2.4 cells; format: in vivo, C57BL/6crl mice; details: mice immunized sc with 1.2×10^6 DC2.4 treated with 50 μg/mL BzFβ then 1 μg/mL SIINFEKL; prime and boost
Procedure: DC2.4 cells that had been matured by an overnight treatment with 20 ng/mL murine IFNγ (He, et al., Interferon gamma stimulates cellular maturation of dendritic cell line DC2.4 leading to induction of efficient cytotoxic T cell responses and antitumor immunity. Cell Mol Immunol. 2007; 4(2):105-11) were treated with 30 μg/mL mitomycin C to block replication and were then pulsed for 1 h with 1 μg/mL SIINFEKL peptide (Group 2), or with 50 μg/mL BzFβ for 1 h and then with 1 μg/mL SIINFEKL peptide for 1 h (Group 3).
Female C57BL/6crl mice were separated into 3 groups with 6 mice per group. The mice in Group 1 served as the naïve, no treatment group, Group 2 treated with by subcutaneous injection of 1.2×10^6 DC2.4 cells primed with IFNγ, mitomycin C and SIINFEKL, and Group 3 treated by subcutaneous injection of 1.2×10^6 DC2.4 cells primed with BzFβ and SIINFEKL as outlined above. […] Fourteen days later, the number of MHC class I/SIINFEKL tetramer positive CD8+ cells in the peripheral blood and spleen were determined.
On day 21 (14 days after the last immunization) blood was collected from the retro-orbital plexus. […] The number of CD19 negative^−/CD8 positive/SIINFEKL tetramer positive cells was determined by flow cytometric analysis following collection of positive events detected in the lymphocyte gate. […]

T1 sequence (P01901 22-369): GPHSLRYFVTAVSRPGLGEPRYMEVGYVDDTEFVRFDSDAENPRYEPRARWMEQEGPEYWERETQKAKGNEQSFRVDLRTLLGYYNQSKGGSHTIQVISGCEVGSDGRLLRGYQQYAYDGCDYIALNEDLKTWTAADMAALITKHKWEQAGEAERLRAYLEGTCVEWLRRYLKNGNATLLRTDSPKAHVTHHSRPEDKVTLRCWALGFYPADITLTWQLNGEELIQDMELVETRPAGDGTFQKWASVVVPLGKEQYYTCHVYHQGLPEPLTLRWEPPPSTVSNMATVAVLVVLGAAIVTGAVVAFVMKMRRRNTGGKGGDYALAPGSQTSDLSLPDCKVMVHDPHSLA
T1 sequence (P01887 21-119 partner): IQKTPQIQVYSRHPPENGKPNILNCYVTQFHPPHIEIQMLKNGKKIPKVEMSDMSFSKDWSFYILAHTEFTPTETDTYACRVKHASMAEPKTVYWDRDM

## O=C(O)/C=C/c1ccc2occc2c1 [BzFβ, (2E)-3-(1-benzofuran-5-yl)prop-2-enoic acid]
[1]
  decay rate of SIINFEKL / stability of H-2Kb/SIINFEKL complex: did not affect the decay rate of SIINFEKL
[2]; 25 μg/mL BzFβ or 5 mM GL during recovery, 4-24 h
  MHC class I recovery after acid stripping: did not show an increase in MHC class I recovery
[2]; treated during recovery, data not shown
  B3Z response post acid-stripping: still able to increase the B3Z response
[3]
  SIINFEKL-specific CD8+ T cell response: enhanced SIINFEKL-specific CD8+ T cell response
